Reference: the kinase profiling compilation of Christmann-Franck et al. (2016)

How the values were obtained:
Assay in all cases: KINOMEscan competition binding
Conditions in all cases: compound 10.0 µM
GSK3A (human) = GSK3A (human) (UniProt P49840)
ACVR2B (human) = ACVR2B (human) (UniProt Q13705)
MAP3K5 (human) = MAP3K5 (human) (UniProt Q99683)
MAPK4 (human) = MAPK4 (human) (UniProt P31152)
BMPR1B (human) = BMPR1B (human) (UniProt O00238)
DDR2 (human) = DDR2 (human) (UniProt Q16832)
PDPK1 (human) = PDPK1 (human) (UniProt O15530)
AAK1 (human) = AAK1 (human) (UniProt Q2M2I8)
IRAK4 (human) = IRAK4 (human) (UniProt Q9NWZ3)
ULK3 (human) = ULK3 (human) (UniProt Q6PHR2)
LIMK1 (human) = LIMK1 (human) (UniProt P53667)
MATK (human) = MATK (human) (UniProt P42679)
MAPK11 (human) = MAPK11 (human) (UniProt Q15759)
BRAF (human) = BRAF (human) (UniProt P15056)
CSNK2A1 (human) = CSNK2A1 (human) (UniProt P68400)
BMPR1A (human) = BMPR1A (human) (UniProt P36894)
STK11 (human) = STK11 (human) (UniProt Q15831)
TBK1 (human) = TBK1 (human) (UniProt Q9UHD2)
PAK1 (human) = PAK1 (human) (UniProt Q13153)
MAPK8 (human) = MAPK8 (human) (UniProt P45983)
STK33 (human) = STK33 (human) (UniProt Q9BYT3)
CAMK2A (human) = CAMK2A (human) (UniProt Q9UQM7)
NEK2 (human) = NEK2 (human) (UniProt P51955)
[1] = test system: EGFR (human), P00533 [A750P; 747-749 del]
PLK1 (human) = PLK1 (human) (UniProt P53350)
CLK2 (human) = CLK2 (human) (UniProt P49760)
SRPK1 (human) = SRPK1 (human) (UniProt Q96SB4)
CSNK1D (human) = CSNK1D (human) (UniProt P48730)
PRKCD (human) = PRKCD (human) (UniProt Q05655)
[2] = test system: EGFR (human), P00533 [747-751 del / S ins]
RPS6KA4 KD2 (human) = RPS6KA4 KD2 (human) (UniProt O75676)
NTRK2 (human) = NTRK2 (human) (UniProt Q16620)
[3] = test system: LRRK2 (human), Q5S007 [G2019S]
MAP2K5 (human) = MAP2K5 (human) (UniProt Q13163)
TLK1 (human) = TLK1 (human) (UniProt Q9UKI8)
RPS6KA1 KD2 (human) = RPS6KA1 KD2 (human) (UniProt Q15418)
RPS6KA2 KD1 (human) = RPS6KA2 KD1 (human) (UniProt Q15349)
EIF2AK1 (human) = EIF2AK1 (human) (UniProt Q9BQI3)
[4] = test system: EGFR (human), P00533 [T790M/L858R]
MAST1 (human) = MAST1 (human) (UniProt Q9Y2H9)
PIM3 (human) = PIM3 (human) (UniProt Q86V86)

Chain of PDPK1 (human) (O15530 whole entry, looked up): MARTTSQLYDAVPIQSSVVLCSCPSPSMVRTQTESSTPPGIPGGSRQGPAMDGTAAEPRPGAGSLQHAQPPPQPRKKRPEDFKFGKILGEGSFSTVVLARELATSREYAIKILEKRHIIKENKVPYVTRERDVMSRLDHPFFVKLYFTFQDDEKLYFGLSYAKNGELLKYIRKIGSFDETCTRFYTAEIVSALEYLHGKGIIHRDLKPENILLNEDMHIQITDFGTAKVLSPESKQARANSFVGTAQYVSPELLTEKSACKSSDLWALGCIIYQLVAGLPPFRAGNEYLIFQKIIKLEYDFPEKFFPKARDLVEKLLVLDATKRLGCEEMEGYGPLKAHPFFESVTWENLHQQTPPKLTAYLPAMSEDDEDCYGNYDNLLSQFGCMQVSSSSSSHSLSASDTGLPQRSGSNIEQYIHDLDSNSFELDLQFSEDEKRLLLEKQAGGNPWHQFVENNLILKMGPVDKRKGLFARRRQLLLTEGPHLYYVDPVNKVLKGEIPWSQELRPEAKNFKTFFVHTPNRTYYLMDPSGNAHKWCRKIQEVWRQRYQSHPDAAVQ
Chain of LRRK2 (human), Q5S007 [G2019S] (Q5S007 whole entry G2019S, looked up): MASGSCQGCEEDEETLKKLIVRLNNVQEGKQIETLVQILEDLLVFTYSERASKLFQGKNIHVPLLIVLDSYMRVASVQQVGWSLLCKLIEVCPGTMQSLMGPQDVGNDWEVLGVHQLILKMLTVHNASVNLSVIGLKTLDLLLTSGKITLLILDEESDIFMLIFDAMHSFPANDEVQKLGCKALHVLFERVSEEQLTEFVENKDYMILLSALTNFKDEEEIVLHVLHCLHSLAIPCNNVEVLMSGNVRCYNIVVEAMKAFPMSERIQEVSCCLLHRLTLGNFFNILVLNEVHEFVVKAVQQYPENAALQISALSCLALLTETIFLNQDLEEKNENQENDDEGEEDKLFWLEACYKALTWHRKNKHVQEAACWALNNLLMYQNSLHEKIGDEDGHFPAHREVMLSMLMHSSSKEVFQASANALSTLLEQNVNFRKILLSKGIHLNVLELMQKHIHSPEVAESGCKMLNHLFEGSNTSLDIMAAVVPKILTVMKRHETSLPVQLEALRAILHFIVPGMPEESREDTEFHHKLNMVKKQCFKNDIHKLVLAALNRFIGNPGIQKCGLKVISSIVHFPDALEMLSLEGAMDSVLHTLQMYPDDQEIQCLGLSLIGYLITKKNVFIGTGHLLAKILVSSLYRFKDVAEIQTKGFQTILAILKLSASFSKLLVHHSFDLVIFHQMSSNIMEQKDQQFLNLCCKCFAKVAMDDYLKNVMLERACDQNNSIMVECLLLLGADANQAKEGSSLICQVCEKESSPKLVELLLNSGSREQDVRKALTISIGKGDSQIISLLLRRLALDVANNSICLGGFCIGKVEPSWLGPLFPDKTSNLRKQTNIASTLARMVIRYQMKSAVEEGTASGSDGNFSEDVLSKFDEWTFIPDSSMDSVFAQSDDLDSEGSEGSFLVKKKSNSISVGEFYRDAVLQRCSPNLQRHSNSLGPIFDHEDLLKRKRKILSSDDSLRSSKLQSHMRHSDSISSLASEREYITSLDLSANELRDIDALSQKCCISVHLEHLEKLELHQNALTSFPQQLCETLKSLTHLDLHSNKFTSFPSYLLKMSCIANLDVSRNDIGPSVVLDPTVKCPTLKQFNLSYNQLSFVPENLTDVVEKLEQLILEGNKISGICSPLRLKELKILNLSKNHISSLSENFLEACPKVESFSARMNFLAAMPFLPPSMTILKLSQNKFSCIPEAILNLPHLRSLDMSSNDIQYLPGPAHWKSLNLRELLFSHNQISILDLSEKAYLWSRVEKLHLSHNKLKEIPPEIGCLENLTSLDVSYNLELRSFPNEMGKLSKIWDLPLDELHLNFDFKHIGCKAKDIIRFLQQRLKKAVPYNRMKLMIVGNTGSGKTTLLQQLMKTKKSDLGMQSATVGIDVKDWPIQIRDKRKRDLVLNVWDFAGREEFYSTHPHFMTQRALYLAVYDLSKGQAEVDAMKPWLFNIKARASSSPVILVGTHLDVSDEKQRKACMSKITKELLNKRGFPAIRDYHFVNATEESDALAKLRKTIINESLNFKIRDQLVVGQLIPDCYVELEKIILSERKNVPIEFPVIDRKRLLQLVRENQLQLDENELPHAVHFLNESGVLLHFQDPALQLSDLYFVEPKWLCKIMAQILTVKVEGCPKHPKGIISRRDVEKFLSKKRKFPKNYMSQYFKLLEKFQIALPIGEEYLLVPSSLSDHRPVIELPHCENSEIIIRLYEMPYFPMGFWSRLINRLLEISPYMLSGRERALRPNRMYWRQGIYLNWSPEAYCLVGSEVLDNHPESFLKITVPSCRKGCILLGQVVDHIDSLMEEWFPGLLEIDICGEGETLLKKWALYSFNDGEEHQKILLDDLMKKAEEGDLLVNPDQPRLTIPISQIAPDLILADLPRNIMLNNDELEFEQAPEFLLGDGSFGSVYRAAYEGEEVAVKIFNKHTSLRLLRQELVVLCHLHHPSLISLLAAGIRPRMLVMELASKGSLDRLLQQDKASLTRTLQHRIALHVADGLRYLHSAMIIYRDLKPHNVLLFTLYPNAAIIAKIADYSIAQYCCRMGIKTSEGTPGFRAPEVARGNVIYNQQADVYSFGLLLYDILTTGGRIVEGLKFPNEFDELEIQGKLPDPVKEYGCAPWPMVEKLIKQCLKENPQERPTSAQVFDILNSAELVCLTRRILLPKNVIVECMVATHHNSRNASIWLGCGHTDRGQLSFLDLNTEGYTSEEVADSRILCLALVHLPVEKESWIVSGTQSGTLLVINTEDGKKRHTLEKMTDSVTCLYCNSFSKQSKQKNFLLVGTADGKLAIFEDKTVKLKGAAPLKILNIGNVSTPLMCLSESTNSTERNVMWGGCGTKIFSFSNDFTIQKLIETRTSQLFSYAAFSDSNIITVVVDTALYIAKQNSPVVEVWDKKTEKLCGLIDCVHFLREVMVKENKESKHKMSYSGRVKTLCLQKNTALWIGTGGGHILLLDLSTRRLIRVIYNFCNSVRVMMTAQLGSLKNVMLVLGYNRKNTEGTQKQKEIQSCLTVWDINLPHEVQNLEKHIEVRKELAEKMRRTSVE
Chain of BMPR1A (human) (P36894 whole entry, looked up): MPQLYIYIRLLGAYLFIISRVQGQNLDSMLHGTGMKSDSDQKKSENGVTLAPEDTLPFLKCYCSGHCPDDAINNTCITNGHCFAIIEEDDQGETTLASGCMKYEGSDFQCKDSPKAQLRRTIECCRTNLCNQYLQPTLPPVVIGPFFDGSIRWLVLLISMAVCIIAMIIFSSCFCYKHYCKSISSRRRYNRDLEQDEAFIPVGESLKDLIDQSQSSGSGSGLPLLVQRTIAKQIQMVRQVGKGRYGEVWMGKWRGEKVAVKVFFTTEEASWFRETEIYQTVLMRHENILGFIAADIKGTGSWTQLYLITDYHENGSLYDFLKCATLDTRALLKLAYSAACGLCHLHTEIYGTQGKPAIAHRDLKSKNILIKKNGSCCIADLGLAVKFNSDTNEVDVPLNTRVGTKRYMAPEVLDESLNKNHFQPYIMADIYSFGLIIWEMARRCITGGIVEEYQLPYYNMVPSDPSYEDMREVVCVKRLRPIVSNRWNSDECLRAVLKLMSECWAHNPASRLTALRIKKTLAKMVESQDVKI
Chain of PAK1 (human) (Q13153 whole entry, looked up): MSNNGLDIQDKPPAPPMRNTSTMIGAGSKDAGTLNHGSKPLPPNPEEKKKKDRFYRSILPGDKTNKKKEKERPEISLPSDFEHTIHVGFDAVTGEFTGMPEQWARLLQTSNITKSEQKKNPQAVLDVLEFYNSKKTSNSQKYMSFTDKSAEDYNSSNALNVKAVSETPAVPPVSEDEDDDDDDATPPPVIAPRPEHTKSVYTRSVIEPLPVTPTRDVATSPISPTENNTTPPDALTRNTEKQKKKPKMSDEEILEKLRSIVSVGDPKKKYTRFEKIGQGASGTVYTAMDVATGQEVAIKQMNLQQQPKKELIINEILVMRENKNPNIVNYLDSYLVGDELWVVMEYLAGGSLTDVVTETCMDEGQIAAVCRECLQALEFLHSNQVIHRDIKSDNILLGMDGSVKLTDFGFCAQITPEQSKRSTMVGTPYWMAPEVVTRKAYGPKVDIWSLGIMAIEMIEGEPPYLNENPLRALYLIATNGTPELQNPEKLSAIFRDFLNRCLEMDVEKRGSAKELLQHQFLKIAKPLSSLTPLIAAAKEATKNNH
Chain of RPS6KA4 KD2 (human) (O75676 whole entry, looked up): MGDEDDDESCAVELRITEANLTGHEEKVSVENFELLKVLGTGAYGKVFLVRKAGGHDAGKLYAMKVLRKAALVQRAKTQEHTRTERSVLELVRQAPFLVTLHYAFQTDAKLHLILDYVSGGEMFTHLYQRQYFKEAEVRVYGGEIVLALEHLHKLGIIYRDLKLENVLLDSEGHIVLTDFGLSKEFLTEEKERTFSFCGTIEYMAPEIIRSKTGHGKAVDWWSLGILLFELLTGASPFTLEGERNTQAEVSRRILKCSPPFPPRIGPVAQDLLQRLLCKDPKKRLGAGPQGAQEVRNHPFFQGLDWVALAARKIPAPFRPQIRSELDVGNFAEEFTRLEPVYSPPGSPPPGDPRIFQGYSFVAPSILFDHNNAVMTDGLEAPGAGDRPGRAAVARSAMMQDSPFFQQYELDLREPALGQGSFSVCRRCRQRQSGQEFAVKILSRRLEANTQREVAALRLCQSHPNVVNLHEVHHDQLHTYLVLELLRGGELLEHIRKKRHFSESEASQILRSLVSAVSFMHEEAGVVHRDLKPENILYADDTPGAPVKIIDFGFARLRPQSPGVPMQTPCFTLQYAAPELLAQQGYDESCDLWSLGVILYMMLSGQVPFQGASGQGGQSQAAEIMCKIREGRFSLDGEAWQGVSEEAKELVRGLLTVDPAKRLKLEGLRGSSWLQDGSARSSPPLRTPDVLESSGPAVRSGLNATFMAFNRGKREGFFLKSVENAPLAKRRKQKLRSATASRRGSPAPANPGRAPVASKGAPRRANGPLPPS

In the case of `CCC(=O)N1CCN(c2ccc(-n3c(=O)ccc4cnc5ccc(-c6cnc7ccccc7c6)cc5c43)cc2C(F)(F)F)CC1`, the kinase still bound, per cent of control (GSK3A (human)) is reported as 93%, the kinase still bound, per cent of control (ACVR2B (human)) is reported as 42% and the kinase still bound, per cent of control (MAP3K5 (human)) is reported as 100%. The kinase still bound, per cent of control (MAPK4 (human)) was 80%, the kinase still bound, per cent of control (BMPR1B (human)) was 100% and the kinase still bound, per cent of control (DDR2 (human)) was 100%. For the same molecule, the kinase still bound, per cent of control (PDPK1 (human)) was 100%, the kinase still bound, per cent of control (AAK1 (human)) was 75% and the kinase still bound, per cent of control (IRAK4 (human)) was 90%. The kinase still bound, per cent of control (ULK3 (human)) was 100%, the kinase still bound, per cent of control (LIMK1 (human)) was 15% and the kinase still bound, per cent of control (MATK (human)) was 97%. For the same molecule, the kinase still bound, per cent of control (MAPK11 (human)) was 53%, the kinase still bound, per cent of control (BRAF (human)) was 59% and the kinase still bound, per cent of control (CSNK2A1 (human)) was 94%. For the same molecule, the kinase still bound, per cent of control (BMPR1A (human)) was 45%, the kinase still bound, per cent of control (STK11 (human)) was 100% and the kinase still bound, per cent of control (TBK1 (human)) was 93%. For the same molecule, the kinase still bound, per cent of control (PAK1 (human)) was 73%, the kinase still bound, per cent of control (MAPK8 (human)) was 22% and the kinase still bound, per cent of control (STK33 (human)) was 90%. It also gave a kinase still bound, per cent of control (CAMK2A (human)) of 93%, a kinase still bound, per cent of control (NEK2 (human)) of 90% and a kinase still bound, per cent of control [1] of 100%. For the same molecule, the kinase still bound, per cent of control (PLK1 (human)) was 85%, the kinase still bound, per cent of control (CLK2 (human)) was 65% and the kinase still bound, per cent of control (SRPK1 (human)) was 100%. It also gave a per cent of control (CSNK1D (human)) of 4.3%, a kinase still bound, per cent of control (PRKCD (human)) of 82% and a kinase still bound, per cent of control [2] of 80%. For the same molecule, the kinase still bound, per cent of control (RPS6KA4 KD2 (human)) was 100%, the kinase still bound, per cent of control (NTRK2 (human)) was 81% and the kinase still bound, per cent of control [3] was 99%. It also gave a kinase still bound, per cent of control (MAP2K5 (human)) of 100%, a kinase still bound, per cent of control (TLK1 (human)) of 100% and a kinase still bound, per cent of control (RPS6KA1 KD2 (human)) of 100%. For the same molecule, the kinase still bound, per cent of control (RPS6KA2 KD1 (human)) was 100%, the kinase still bound, per cent of control (EIF2AK1 (human)) was 57% and the kinase still bound, per cent of control [4] was 100%. The kinase still bound, per cent of control (MAST1 (human)) was 93% and the kinase still bound, per cent of control (PIM3 (human)) was 96%.

Molecule `COc1ccc(-c2ccc3c(N4CCOCC4)nc(N4C[C@@H](C)O[C@@H](C)C4)nc3n2)cc1CO` has a kinase still bound, per cent of control (GSK3A (human)) of 100%, a kinase still bound, per cent of control (ACVR2B (human)) of 100% and a kinase still bound, per cent of control (MAP3K5 (human)) of 97%. For the same molecule, the kinase still bound, per cent of control (MAPK4 (human)) was 100%, the kinase still bound, per cent of control (BMPR1B (human)) was 99% and the kinase still bound, per cent of control (DDR2 (human)) was 100%. It also gave a kinase still bound, per cent of control (PDPK1 (human)) of 100%, a kinase still bound, per cent of control (AAK1 (human)) of 93% and a kinase still bound, per cent of control (IRAK4 (human)) of 99%. The kinase still bound, per cent of control (ULK3 (human)) was 100%, the kinase still bound, per cent of control (LIMK1 (human)) was 100% and the kinase still bound, per cent of control (MATK (human)) was 78%. It also gave a kinase still bound, per cent of control (MAPK11 (human)) of 98%, a kinase still bound, per cent of control (BRAF (human)) of 81% and a kinase still bound, per cent of control (CSNK2A1 (human)) of 96%. It also gave a kinase still bound, per cent of control (BMPR1A (human)) of 70%, a kinase still bound, per cent of control (STK11 (human)) of 95% and a kinase still bound, per cent of control (TBK1 (human)) of 100%. It also gave a kinase still bound, per cent of control (PAK1 (human)) of 84%, a kinase still bound, per cent of control (MAPK8 (human)) of 87% and a kinase still bound, per cent of control (STK33 (human)) of 95%. For the same molecule, the kinase still bound, per cent of control (CAMK2A (human)) was 87%, the kinase still bound, per cent of control (NEK2 (human)) was 100% and the kinase still bound, per cent of control [1] was 100%. The kinase still bound, per cent of control (PLK1 (human)) was 55%, the kinase still bound, per cent of control (CLK2 (human)) was 64% and the kinase still bound, per cent of control (SRPK1 (human)) was 100%. The per cent of control (CSNK1D (human)) was 79%, the kinase still bound, per cent of control (PRKCD (human)) was 100% and the kinase still bound, per cent of control [2] was 82%. For the same molecule, the kinase still bound, per cent of control (RPS6KA4 KD2 (human)) was 95%, the kinase still bound, per cent of control (NTRK2 (human)) was 73% and the kinase still bound, per cent of control [3] was 100%. The kinase still bound, per cent of control (MAP2K5 (human)) was 100%, the kinase still bound, per cent of control (TLK1 (human)) was 94% and the kinase still bound, per cent of control (RPS6KA1 KD2 (human)) was 100%. For the same molecule, the kinase still bound, per cent of control (RPS6KA2 KD1 (human)) was 100%, the kinase still bound, per cent of control (EIF2AK1 (human)) was 88% and the kinase still bound, per cent of control [4] was 100%. The kinase still bound, per cent of control (MAST1 (human)) was 100% and the kinase still bound, per cent of control (PIM3 (human)) was 100%.
